Results from patent publication US20250325677A1, “STAT6 DEGRADERS” (Gilead Sciences, Inc., priority 2024, published 2025).
Several values for one entry are separate records, joined by “and”; a condition that tells them apart may be missing. Equal entries are not always repeated. Where two headings read alike, the source gives them in different places.

Experiments:
STAT6 = STAT6 (Homo sapiens (Human), UniProt P42226); test: STAT6 degrader assay (HiBiT, HeLa LgBiT clone 4.14); format: cell-based; settings: HeLa LgBiT clone 4.14, 4-24 h; geometric mean; given for compounds with >80% Emax; read-out: STAT6 degradation DC50
Outline: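 DC50 (nM) comes from luminescence of non-degraded STAT6 read 0.5 h after Nano-GLO addition, following 4-24 h compound exposure at 37° C. Cells were HeLa clone 4.14 expressing LgBiT with a CRISPR HiBiT tag on endogenous STAT6; 50 μM terfenadine set full degradation.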

eotaxin-3 release = test: Human whole blood eotaxin-3 assay (IL-4 stimulated); format: cell-based; settings: human whole blood
Description: Human Whole Blood Eotaxin-3 Assay
This was a human whole blood assay using recombinant human Interleukin 4 to stimulate the blood and measuring the ability of the test compounds to inhibit eotaxin-3 release. Compounds or media were added to the wells and incubated together with human whole blood for 120 minutes at 37° C. Subsequently, recombinant IL-4 was added at a final concentration of 0.4 nM. The plates were incubated for 48 hours.
Test compounds which inhibited eotaxin-3 release upon stimulation with human IL-4 (E. coli) interfered with the signaling in human whole blood are expected to have activity in human beings. […] The EC50 value indicates at which concentration test compounds were active and in inhibiting the eotaxin-3 release. As eotaxin-3 release is down-stream of STAT6 signaling both STAT6 inhibitors and STAT6 degraders are active in this assay.
The data from the human whole blood eotaxin-3 assay is shown below for Examples 3e27, 3e50, 3e17, and 3e51 (where the effect in % is plotted against the test concentration in M on a log-scale).

[1] = IL-4 0.4 nM, 48 hours, geometric mean, given for compounds with >80% Emax, read-out: Eotaxin-3 EC50

Chain of STAT6 (P42226 whole entry): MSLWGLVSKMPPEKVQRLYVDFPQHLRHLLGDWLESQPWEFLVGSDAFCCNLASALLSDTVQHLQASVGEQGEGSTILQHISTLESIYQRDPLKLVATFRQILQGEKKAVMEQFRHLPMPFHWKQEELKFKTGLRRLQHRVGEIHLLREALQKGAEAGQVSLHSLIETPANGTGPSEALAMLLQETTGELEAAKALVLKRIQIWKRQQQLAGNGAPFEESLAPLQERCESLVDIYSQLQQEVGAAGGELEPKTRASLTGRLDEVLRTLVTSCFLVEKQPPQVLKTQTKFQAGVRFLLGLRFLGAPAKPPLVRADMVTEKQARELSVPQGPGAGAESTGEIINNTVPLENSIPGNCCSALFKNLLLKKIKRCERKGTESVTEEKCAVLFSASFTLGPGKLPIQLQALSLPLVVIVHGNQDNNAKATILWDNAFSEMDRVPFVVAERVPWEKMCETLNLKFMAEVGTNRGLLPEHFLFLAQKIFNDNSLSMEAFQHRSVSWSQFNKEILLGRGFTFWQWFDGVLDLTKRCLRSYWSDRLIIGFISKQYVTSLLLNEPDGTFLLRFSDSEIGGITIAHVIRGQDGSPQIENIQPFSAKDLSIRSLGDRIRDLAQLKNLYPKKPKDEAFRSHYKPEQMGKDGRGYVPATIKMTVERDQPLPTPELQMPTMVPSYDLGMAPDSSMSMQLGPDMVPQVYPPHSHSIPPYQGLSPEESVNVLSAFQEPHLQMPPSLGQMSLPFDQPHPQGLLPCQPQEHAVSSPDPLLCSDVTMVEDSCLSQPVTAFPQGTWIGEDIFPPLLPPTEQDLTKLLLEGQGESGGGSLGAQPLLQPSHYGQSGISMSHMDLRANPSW

SMILES	DC50 (STAT6)	EC50 (eotaxin-3 release; [1]) [nM]	EC50 (eotaxin-3 release; hIL-4 (E. coli) stimulation, read-out: EC50 of inhibition of eotaxin-3 release (reference compound)) [nM]	Emax (eotaxin-3 release; hIL-4 (E. coli) stimulation, read-out: Emax of inhibition of eotaxin-3 release) [%]
C[C@H]1CN(Cc2cc3c(cc2F)n(C2CCC(=O)NC2=O)c(=O)n3C)CCN1CC1CCN(C(=O)c2ccc(C3CCN([C@@H](C)c4cc5c(-c6ccc(N)nc6)ccnc5n4C)CC3)cc2)CC1 (mixture of isomers) [Example 3e34, 3-(5-(((S)-4-((1-(4-(1-((S)-1-(4-(6-aminopyridin-3-yl)-1-methyl-1H-pyrrolo[2,3-b]pyridin-2-yl)ethyl)piperidin-4-yl)benzoyl)piperidin-4-yl)methyl)-3-methylpiperazin-1-yl)methyl)-6-fluoro-3-methyl-2-oxo-2,3-dihydro-1H-benzo[d]imidazol-1-yl)piperidine-2,6-dione]	0.4 nM	1.8	–	–
C[C@H]1CN(Cc2ccc3c(c2)n(C)c(=O)n3[C@H]2CCC(=O)NC2=O)CCN1CC1CCN(C(=O)c2ccc(C3CCN(Cc4cc5c(-c6ccc(N)nc6)ccnc5n4C)CC3)cc2)CC1 (single isomer, unassigned) [Example 3e19]	0.7 nM	20.9	–	–
C[C@H]1CN(Cc2ccc3c(c2)n(C)c(=O)n3[C@@H]2CCC(=O)NC2=O)CCN1CC1CCN(C(=O)c2ccc(C3CCN(Cc4cc5c(-c6ccc(N)nc6)ccnc5n4C)CC3)cc2)CC1 (single isomer, unassigned) [Example 3e20]	1.1 nM	29.8	–	–
C[C@H]1CN(Cc2ccc3c(c2)n(C)c(=O)n3[C@H]2CCC(=O)NC2=O)CCN1CC1CCN(C(=O)c2ccc(C3CCN([C@@H](C)c4cc5c(-c6ccc(N)nc6)ccnc5n4C)CC3)cc2)CC1 (single isomer, unassigned) [Example 3e46]	0.3 nM	0.8	–	–
C[C@H]1CN(Cc2ccc3c(c2)n(C)c(=O)n3[C@@H]2CCC(=O)NC2=O)CCN1CC1CCN(C(=O)c2ccc(C3CCN([C@@H](C)c4cc5c(-c6ccc(N)nc6)ccnc5n4C)CC3)cc2)CC1 (single isomer, unassigned) [Example 3e49]	0.3 nM	1.4	–	–
C[C@H]1CN(Cc2ccc3c(c2)n(C2CC2)c(=O)n3[C@H]2CCC(=O)NC2=O)CCN1CC1CCN(C(=O)c2ccc(C3CCN([C@@H](C)c4cc5c(-c6ccc(N)nc6)ccnc5n4C)CC3)cc2)CC1 (single isomer, unassigned) [Example 3e50]	1 nM	2.3	–	–
C[C@H]1CN(Cc2ccc3c(c2)n(C2CC2)c(=O)n3[C@@H]2CCC(=O)NC2=O)CCN1CC1CCN(C(=O)c2ccc(C3CCN([C@@H](C)c4cc5c(-c6ccc(N)nc6)ccnc5n4C)CC3)cc2)CC1 (single isomer, unassigned) [Example 3e51]	0.8 nM	3.1	–	–
C[C@H]1CN(Cc2cc3c(cc2F)n([C@@H]2CCC(=O)NC2=O)c(=O)n3C)CCN1CC1CCN(C(=O)c2ccc(C3CCN([C@@H](C)c4cc5c(-c6ccc(N)nc6)ccnc5n4C)CC3)cc2)CC1 (single isomer, unassigned) [Example 3e60]	0.3 nM	1.2	–	–
C[C@H]1CN(Cc2cc3c(cc2F)n([C@@H]2CCC(=O)NC2=O)c(=O)n3C2CC2)CCN1CC1CCN(C(=O)c2ccc(C3CCN([C@@H](C)c4cc5c(-c6ccc(N)nc6)ccnc5n4C)CC3)cc2)CC1 (single isomer, unassigned) [Example 3e61]	1.4 nM	3.5	–	–
C[C@H]1CN(Cc2cc3c(cc2F)n([C@H]2CCC(=O)NC2=O)c(=O)n3C2CC2)CCN1CC1CCN(C(=O)c2ccc(C3CCN([C@@H](C)c4cc5c(-c6ccc(N)nc6)ccnc5n4C)CC3)cc2)CC1 (single isomer, unassigned) [Example 3e62]	0.8 nM	4.9	–	–
C[C@H]1CN(Cc2cc3c(cc2F)n([C@H]2CCC(=O)NC2=O)c(=O)n3C)CCN1CC1CCN(C(=O)c2ccc(C3CCN([C@@H](C)c4cc5c(-c6ccc(N)nc6)ccnc5n4C)CC3)cc2)CC1 (single isomer, unassigned) [Example 3e63]	0.2 nM	1.2	–	–
CC[C@H]1CN(Cc2ccc3c(c2)n(C2CC2)c(=O)n3[C@@H]2CCC(=O)NC2=O)CCN1CC1CCN(C(=O)c2ccc(C3CCN([C@@H](C)c4cc5c(-c6ccc(N)nc6)ccnc5n4C)CC3)cc2)CC1 (single isomer, unassigned) [Example 3e64]	2 nM	6	–	–
CC[C@H]1CN(Cc2ccc3c(c2)n(C2CC2)c(=O)n3[C@H]2CCC(=O)NC2=O)CCN1CC1CCN(C(=O)c2ccc(C3CCN([C@@H](C)c4cc5c(-c6ccc(N)nc6)ccnc5n4C)CC3)cc2)CC1 (single isomer, unassigned) [Example 3e65]	2.6 nM	5.4	–	–
CNc1ccc(-c2ccnc3c2cc([C@H](C)N2CCC(c4ccc(C(=O)N5CCC(CN6CCN(Cc7ccc8c(c7)n(C7CC7)c(=O)n8[C@H]7CCC(=O)NC7=O)C[C@@H]6C)CC5)cc4)CC2)n3C)cn1 (single isomer, unassigned) [Example 3h26]	1.4 nM	3.1	–	–
CNc1ccc(-c2ccnc3c2cc([C@H](C)N2CCC(c4ccc(C(=O)N5CCC(CN6CCN(Cc7ccc8c(c7)n(C7CC7)c(=O)n8[C@@H]7CCC(=O)NC7=O)C[C@@H]6C)CC5)cc4)CC2)n3C)cn1 (single isomer, unassigned) [Example 3h27]	1.8 nM	5.8	–	–
Cn1c(CN2CCC(c3ccc(C(=O)N4CCC(CN5CCN(Cc6ccc7c(c6)n(C)c(=O)n7C6CCC(=O)NC6=O)CC5)CC4)cc3)CC2)cc2c(-c3ccc(N)nc3)ccnc21 (stereo not drawn) [Example 3e2, 3-(5-((4-((1-(4-(1-((4-(6-aminopyridin-3-yl)-1-methyl-1H-pyrrolo[2,3-b]pyridin-2-yl)methyl)piperidin-4-yl)benzoyl)piperidin-4-yl)methyl)piperazin-1-yl)methyl)-3-methyl-2-oxo-2,3-dihydro-1H-benzo[d]imidazol-1-yl)piperidine-2,6-dione]	4.6 nM	98.7	–	–
COCc1nc2cc(-c3ccnc4c3cc(CN3CCC(c5ccc(C(=O)N6CCC(CN7CCN(Cc8ccc9c(c8)n(C)c(=O)n9C8CCC(=O)NC8=O)CC7)CC6)cc5)CC3)n4C)ccc2[nH]1 (stereo not drawn) [Example 3e3, 3-(5-((4-((1-(4-(1-((4-(2-(methoxymethyl)-1H-benzo[d]imidazol-5-yl)-1-methyl-1H-pyrrolo[2,3-b]pyridin-2-yl)methyl)piperidin-4-yl)benzoyl)piperidin-4-yl)methyl)piperazin-1-yl)methyl)-3-methyl-2-oxo-2,3-dihydro-1H-benzo[d]imidazol-1-yl)piperidine-2,6-dione]	0.8 nM	14.4	–	–
C[C@H]1CN(Cc2ccc3c(c2)n(C)c(=O)n3C2CCC(=O)NC2=O)CCN1CC1CCN(C(=O)c2ccc(C3CCN(Cc4cc5c(-c6ccc(N)nc6)ccnc5n4C)CC3)cc2)CC1 (stereo partly drawn) [Example 3e9, 3-(5-(((S)-4-((1-(4-(1-((4-(6-aminopyridin-3-yl)-1-methyl-1H-pyrrolo[2,3-b]pyridin-2-yl)methyl)piperidin-4-yl)benzoyl)piperidin-4-yl)methyl)-3-methylpiperazin-1-yl)methyl)-3-methyl-2-oxo-2,3-dihydro-1H-benzo[d]imidazol-1-yl)piperidine-2,6-dione]	0.75 nM	31	–	–
C[C@H]1CN(Cc2ccc3c(c2)n(C2CC2)c(=O)n3C2CCC(=O)NC2=O)CCN1CC1CCN(C(=O)c2ccc(C3CCN(Cc4cc5c(-c6ccc(N)nc6)ccnc5n4C)CC3)cc2)CC1 (stereo partly drawn) [Example 3e13, 3-(5-(((S)-4-((1-(4-(1-((4-(6-aminopyridin-3-yl)-1-methyl-1H-pyrrolo[2,3-b]pyridin-2-yl)methyl)piperidin-4-yl)benzoyl)piperidin-4-yl)methyl)-3-methylpiperazin-1-yl)methyl)-3-cyclopropyl-2-oxo-2,3-dihydro-1H-benzo[d]imidazol-1-yl)piperidine-2,6-dione]	0.9 nM and 1.1 nM	37.6	–	–
CNc1ccc(-c2ccnc3c2cc([C@H](C)N2CC=C(c4c(C)cc(C(=O)N5CCC(CN6CCN(c7cc8c(cc7F)n(C7CCC(=O)NC7=O)c(=O)n8C)CC6)CC5)cc4F)CC2)n3C)cn1 (stereo partly drawn) [Example 3h45, 3-(6-fluoro-5-(4-((1-(3-fluoro-5-methyl-4-(1-((S)-1-(1-methyl-4-(6-(methylamino)pyridin-3-yl)-1H-pyrrolo[2,3-b]pyridin-2-yl)ethyl)-1,2,3,6-tetrahydropyridin-4-yl)benzoyl)piperidin-4-yl)methyl)piperazin-1-yl)-3-methyl-2-oxo-2,3-dihydro-1H-benzo[d]imidazol-1-yl)piperidine-2,6-dione]	–	6.7	–	–
C[C@H]1CN(c2ccc3c(c2)C2(CC2)C(=O)N3C2CCC(=O)NC2=O)CCN1CC1CCN(C(=O)c2ccc(C3CCN([C@@H](C)c4cc5c(-c6ccc(N)nc6)ccnc5n4C)CC3)cc2)CC1 (stereo partly drawn) [Example 3h46, 3-(5′-((S)-4-((1-(4-(1-((S)-1-(4-(6-aminopyridin-3-yl)-1-methyl-1H-pyrrolo[2,3-b]pyridin-2-yl)ethyl)piperidin-4-yl)benzoyl)piperidin-4-yl)methyl)-3-methylpiperazin-1-yl)-2′-oxospiro[cyclopropane-1,3′-indolin]-1′-yl)piperidine-2,6-dione]	–	230	–	–
CCCS(=O)(=O)N[C@H]1C[C@@H](N(C)c2ncnc3[nH]ccc23)C1 [abroticinib, abrocitinib, reference compound]	–	–	~450	~100
